The text below walks through data of article PMC3523327 (Bioorganic & medicinal chemistry letters, 2012).

A value given as a limit tells only on which side of the number the result lay.

Assay [1] concerns the target HIV-1 integrase (IN), 3′-processing (Human immunodeficiency virus type 1 group M subtype B, UniProt P12497). Nature of the assay: in vitro IN assay, 3′-processing reaction. It counts as biochemical.
The target of assay [2] is HIV-1 integrase (IN), strand transfer (Human immunodeficiency virus type 1 group M subtype B, UniProt P12497). Nature of the assay: in vitro IN assay, strand transfer reaction. The class given is biochemical. As to conditions: ST IC50 of 5d-2 versus 4d.
The test system of assay [3] is HIV-1 vector with N155H IN mutant. As to conditions: cellular studies, HIV vectors bearing N155H mutant; ref [25]; cited from earlier work.

One may read the IC50 as the concentration needed to halve the response being measured. Consider `Cc1cc2c(c(O)c1O)C(=O)N(Cc1ccc(F)c(Cl)c1)C2` [Compound 4b], for which the IC50 in assay [1] is > 111 µM. Consider `CCCCc1cc2c(c(O)c1O)C(=O)N(Cc1ccc(F)c(Cl)c1)C2` [Compound 4c], for which the concentration for half-maximal inhibition (IC50) in assay [1] is > 111 µM. For the compound `CC(C)c1cc2c(c(O)c1O)C(=O)N(Cc1ccc(F)c(Cl)c1)C2` [Compound 4d], the concentration for half-maximal inhibition (IC50) in assay [1] is > 111 µM. Same read-out and setting: with `O=C1c2c(cc(-c3ccccc3)c(O)c2O)CN1Cc1ccc(F)c(Cl)c1` [Compound 4e] the figure was > 111 µM. Consider `CN(C)S(=O)(=O)c1ccc(-c2cc3c(c(O)c2O)C(=O)N(Cc2ccc(F)c(Cl)c2)C3)cc1` [Compound 4h], for which the half-inhibitory concentration (IC50) in assay [1] was > 111 µM.

As to `CCCCc1c(O)c(O)c2c(c1S(=O)(=O)N(C)C)CN(Cc1ccc(F)c(Cl)c1)C2=O` [Compound 5c-2], in assay [1], the IC50 is > 111 µM. In the case of `CC(C)c1c(O)c(O)c2c(c1S(=O)(=O)N(C)C)CN(Cc1ccc(F)c(Cl)c1)C2=O` [Compound 5d-2], the half-inhibitory concentration (IC50) in assay [1] is > 111 µM. Also, in assay [2], the “enhancement in the ST reaction relative to parent 4d” value is 20 fold. `CC(C)c1c(O)c(O)c2c(c1S(=O)(=O)N1CCOCC1)CN(Cc1ccc(F)c(Cl)c1)C2=O` [Compound 5d-10]: in assay [1], the IC50 is > 111 µM.

Take `Cc1nnc(C(=O)NC(C)(C)c2nc(C(=O)NCc3ccc(F)cc3)c(O)c(=O)n2C)o1` [raltegravir]: in assay [3], the “loss of antiviral potency” value is ~40 fold.
